Reference: patent US11771681B2, “Therapeutic compounds” (SMALL PHARMA LTD, priority 2019, dated 2023)

Experiments:
human hepatocytes = test: In vitro intrinsic clearance in human hepatocytes; type: in vitro ADME; settings: human (mixed gender) hepatocytes pooled from 10 donors, 0.545 million cells/mL; 5 μM; up to 60 minutes at 37° C.; calculated, weighted on ratio of D0, D1 and D2
Procedure: (§1) Human (mixed gender) hepatocytes pooled from 10 donors (0.545 million cells/mL) were used to investigate the in vitro intrinsic clearance of DMT and 6 deuterated analogues.
(§2) A concentration of 5 μM was used for all test compounds, as well as sumatriptan, serotonin, benzylamine controls. This concentration was chosen in order to maximise the signal-to-noise ratio, while remaining under the Michaelis constant (Km) for the monoamine oxidase enzyme (MAO). Diltiazem and diclofenac controls were used at a laboratory-validated concentration of 1 μM.
(§3) Test compounds were mixed with the hepatocyte suspension within a 96-well plate and incubated for up to 60 minutes at 37° C. […] At 7 time points, small aliquots were withdrawn, and the test compound/blend concentration therein was measured by LC-MS/MS. The time points measured were 2, 4, 8, 15, 30, 45 and 60 minutes. […]
(§4) The MRM transitions were determined from a preliminary analysis of DMT samples containing either no deuterium (for D0 transition), or high levels of either D1 or D2 deuteration (for the D1 and D2 transitions respectively).
(§5) The resulting concentration-time profile was then used to calculate intrinsic clearance (CLint) and half-life (t½). […] Intrinsic clearance is calculated from the slope/elimination rate constant and the formula is CLint=(−1000*slope)/cell density in 1E6 cells/ml, to give units of microlitre/min/million cells. […]

[1] = In vitro intrinsic clearance in human hepatocytes; type: in vitro ADME; settings: both sexes, pooled hepatocytes in suspension, human (mixed gender) hepatocytes pooled from 10 donors, 0.545 million cells/mL, up to 60 minutes at 37° C., weighted on ratio of D0, D1 and D2
Procedure: as §1, §2, §3, §4, §5

## CN(C)CCc1c[nH]c2ccccc12 [DMT, N,N-dimethyltryptamine]
Human hepatocytes
  Half-life: 1.54 h
[1]
  hepatocyte CLint at 5 μM: 13.8 µL/min/1e6 cells
